Data from ChEMBL document CHEMBL1201862, “PubChem BioAssay data set” (2004).
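How tested: cells in 96-well plates exposed to compound for 48 hours at five concentrations. GI50: concentration for 50% inhibition of growth.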 The source made the active and inactive calls. No stated cut-off is given here; in the data, active = GI50 up to about 1.1 µM and inactive = higher.

Assays:
Assay in all cases: growth of human tumour cells (NCI), 48 h
[1] = tested on: PC-3
[2] = tested on: SF-295
[3] = tested on: HL-60
[4] = tested on: COLO 205
[5] = tested on: DU-145
[6] = tested on: NCI-H522
[7] = tested on: SR
[8] = tested on: SNB-75
[9] = tested on: Malme-3M
[10] = tested on: MDA-MB-231
[11] = tested on: HOP-92
[12] = tested on: SK-OV-3
[13] = tested on: SK-MEL-5
[14] = tested on: A549
[15] = tested on: U-251
[16] = tested on: OVCAR-4
[17] = tested on: KM12
[18] = tested on: RXF 393
[19] = tested on: SN12C
[20] = tested on: SF-268

SMILES | GI50 [1] | GI50 [2] | GI50 [3] | GI50 [4] | GI50 [5] | GI50 [6] | GI50 [7] | GI50 [8] | GI50 [9] | GI50 [10] | GI50 [11] | GI50 [12] | GI50 [13] | GI50 [14] | GI50 [15] | GI50 [16] | GI50 [17] | GI50 [18] | GI50 [19] | GI50 [20]
CS(=O)(=O)OCCN(CCOS(C)(=O)=O)c1ccc(/C=N/c2ccc(-c3csc(COc4ccccc4)n3)cc2)cc1 | 7.06 µM (inactive) | 0.807 µM (active) | 0.817 µM (active) | 2.07 µM (inactive) | 1.64 µM (inactive) | 0.295 µM (active) | 0.222 µM (active) | 1.9 µM (inactive) | 12.8 µM (inactive) | 17 µM (inactive) | 15.6 µM (inactive) | 1.69 µM (inactive) | 10.7 µM (inactive) | 3.21 µM (inactive) | 7.24 µM (inactive) | 14.8 µM (inactive) | 4.78 µM (inactive) | 0.461 µM (active) | 5.14 µM (inactive) | 2.49 µM (inactive)
COc1ccc(N2C(=O)C3ON(C(C(N)=O)c4ccccc4)C(c4cc5ccccc5c5ccccc45)C3C2=O)cc1 (configuration not stated) | 30.7 µM (inactive) | > 50 µM (inactive) | 9.27 µM (inactive) | 19.6 µM (inactive) | > 50 µM (inactive) | 29.5 µM (inactive) | 16.1 µM (inactive) | 40.1 µM (inactive) | > 50 µM (inactive) | > 50 µM (inactive) | 47.1 µM (inactive) | > 50 µM (inactive) | 19.7 µM (inactive) | > 50 µM (inactive) | 38.5 µM (inactive) | 25.9 µM (inactive) | 32.3 µM (inactive) | 21.8 µM (inactive) | 14 µM (inactive) | 40.9 µM (inactive)
CC(C)(C)OC(=O)CCC1NC(=O)[C@@H]2Cc3c([nH]c4ccccc34)C(c3ccccc3)N2C1=O (some centres not stated) | 19.3 µM (inactive) | 19.7 µM (inactive) | 21.4 µM (inactive) | 20.9 µM (inactive) | 43.7 µM (inactive) | 25.2 µM (inactive) | > 100 µM (inactive) |  | 16.4 µM (inactive) | 19.7 µM (inactive) | 27.9 µM (inactive) | 29.6 µM (inactive) | 17.6 µM (inactive) | 31.8 µM (inactive) | 18.2 µM (inactive) | 32.7 µM (inactive) | 24.9 µM (inactive) | 18.2 µM (inactive) | 23.7 µM (inactive) | 24.7 µM (inactive)
Oc1ccc(O)c(CNc2ccccc2)c1 | 10.1 µM (inactive) | 12.1 µM (inactive) | 2.67 µM (inactive) | 18.8 µM (inactive) | 12.3 µM (inactive) | 1.94 µM (inactive) | 2.29 µM (inactive) | 33.5 µM (inactive) | 14.2 µM (inactive) | 17.7 µM (inactive) | 5.07 µM (inactive) | 19.2 µM (inactive) | 16.8 µM (inactive) | 26.4 µM (inactive) | 17.1 µM (inactive) | 13 µM (inactive) | 5.13 µM (inactive) | 5.64 µM (inactive) | 11.3 µM (inactive) | 11.6 µM (inactive)
c1ccc2c(CN3CCN(Cc4c[nH]c5ccccc45)CC3)c[nH]c2c1 | 18.6 µM (inactive) | 16 µM (inactive) | 17.5 µM (inactive) | 5.58 µM (inactive) | 18.3 µM (inactive) | 16.5 µM (inactive) | 19.7 µM (inactive) | 13.3 µM (inactive) | 15.3 µM (inactive) | 14.9 µM (inactive) | 14.8 µM (inactive) | 21.4 µM (inactive) | 15.2 µM (inactive) |  | 15.9 µM (inactive) | 41.4 µM (inactive) | 16.8 µM (inactive) | 14.3 µM (inactive) | 17.7 µM (inactive) | 17.4 µM (inactive)
CC(C)(C)OC(=O)NC(Cc1ccc(OCc2ccccc2)cn1)C(=O)NCc1ccccc1 (configuration not stated) | 20.4 µM (inactive) | 21.2 µM (inactive) | 15.1 µM (inactive) | 17.1 µM (inactive) | 40.5 µM (inactive) | 17.1 µM (inactive) | 10.1 µM (inactive) | 27.1 µM (inactive) | 22.8 µM (inactive) | 24.6 µM (inactive) | 20 µM (inactive) | 22.1 µM (inactive) | 13.3 µM (inactive) | 36.6 µM (inactive) | 26.1 µM (inactive) |  | 29.7 µM (inactive) | 27.9 µM (inactive) | 28.1 µM (inactive) | 23.6 µM (inactive)
OC1C[C@H](c2ccccc2)C2(C(O)c3ccccc3C2O)[C@@H](c2ccccc2)C1 (some centres not stated) | > 100 µM (inactive) | > 100 µM (inactive) | 27.9 µM (inactive) | > 100 µM (inactive) | > 100 µM (inactive) | 32.4 µM (inactive) | 11.1 µM (inactive) | 53.7 µM (inactive) | > 100 µM (inactive) | > 100 µM (inactive) | 57.4 µM (inactive) | > 100 µM (inactive) | > 100 µM (inactive) | > 100 µM (inactive) | > 100 µM (inactive) | > 100 µM (inactive) | > 100 µM (inactive) | > 100 µM (inactive) | > 100 µM (inactive) | > 100 µM (inactive)
COc1ccc2c(c1)C(OC)C1c3c(cc4c(c3-2)OCO4)CCN1C (configuration not stated) | 2.6 µM (inactive) | 2.38 µM (inactive) | 1.24 µM (inactive) | 2.79 µM (inactive) | 5.41 µM (inactive) | 1.56 µM (inactive) | 2.4 µM (inactive) | 4.05 µM (inactive) | 2 µM (inactive) | 2.44 µM (inactive) | 0.925 µM (active) | 4.5 µM (inactive) | 2.43 µM (inactive) | 2.92 µM (inactive) | 3.67 µM (inactive) | 2.32 µM (inactive) | 4.34 µM (inactive) | 2.06 µM (inactive) | 2.64 µM (inactive) | 4.63 µM (inactive)
O=C(Oc1ccc(S(=O)(=O)F)cc1F)c1ccccc1Cl | 37.8 µM (inactive) | 32.1 µM (inactive) | 35.6 µM (inactive) | 19.5 µM (inactive) | 28.1 µM (inactive) | 18.3 µM (inactive) | 24.5 µM (inactive) | 24.9 µM (inactive) | 31.8 µM (inactive) | 23.8 µM (inactive) | 20.2 µM (inactive) | 98.9 µM (inactive) | 16.2 µM (inactive) | 35.5 µM (inactive) | 35.2 µM (inactive) | 30.1 µM (inactive) | 30.4 µM (inactive) | 21.3 µM (inactive) | 31.5 µM (inactive) | 32.5 µM (inactive)
O[C@@H]1CCC[C@@H]2NC[C@@H](c3ccc4c(c3)OCO4)[C@H]12 | > 100 µM (inactive) | > 100 µM (inactive) | 96.4 µM (inactive) | > 100 µM (inactive) | > 100 µM (inactive) | > 100 µM (inactive) | > 100 µM (inactive) | > 100 µM (inactive) | > 100 µM (inactive) | > 100 µM (inactive) | > 100 µM (inactive) | > 100 µM (inactive) | > 100 µM (inactive) | > 100 µM (inactive) | > 100 µM (inactive) | > 100 µM (inactive) | > 100 µM (inactive) | > 100 µM (inactive) |  | > 100 µM (inactive)
COC(=O)C1(CCCCCBr)CCCCCCCCCCC1=O (configuration not stated) | 44.1 µM (inactive) | 35.6 µM (inactive) | 30 µM (inactive) | 31.8 µM (inactive) | 88.5 µM (inactive) | 20.5 µM (inactive) | 33.5 µM (inactive) |  | 19.7 µM (inactive) | 36.6 µM (inactive) | 58.7 µM (inactive) | > 100 µM (inactive) | 16.3 µM (inactive) | 31.3 µM (inactive) | 28.3 µM (inactive) | 19.8 µM (inactive) | 46.5 µM (inactive) | 23.4 µM (inactive) | 37.6 µM (inactive) | 51.6 µM (inactive)
CCN(CC)CCCNc1nncc2c(C)c3[nH]c4ccccc4c3cc12 | 0.705 µM (active) | 2.74 µM (inactive) | 0.267 µM (active) | 0.653 µM (active) | 0.706 µM (active) | 0.16 µM (active) | 0.247 µM (active) | 1.41 µM (inactive) | 1.04 µM (active) | 0.374 µM (active) | 0.847 µM (active) | 0.989 µM (active) | 1.99 µM (inactive) | 0.67 µM (active) | 0.605 µM (active) | 0.514 µM (active) | 0.667 µM (active) | 1.63 µM (inactive) | 0.292 µM (active) | 
O=C1N(CN2CCOCC2)CN(CN2CCOCC2)C(=O)N1Cc1ccccc1 | 29.9 µM (inactive) | > 100 µM (inactive) |  | 20.1 µM (inactive) | 24.9 µM (inactive) | 13.3 µM (inactive) | 18.8 µM (inactive) | 25.5 µM (inactive) | 15.2 µM (inactive) | 26.2 µM (inactive) | 25.8 µM (inactive) | > 100 µM (inactive) | 19.4 µM (inactive) | 40.4 µM (inactive) | 23.3 µM (inactive) | 42.7 µM (inactive) | 23.8 µM (inactive) | 17.7 µM (inactive) | 23 µM (inactive) | 22 µM (inactive)
CC[C@]1(Cc2ccc(OC)c(OC)c2)C=[N+]([O-])O[C@H](OCc2ccccc2)[C@@H]1OC(C)=O | 20.5 µM (inactive) | 53.6 µM (inactive) | 16.6 µM (inactive) | 17.1 µM (inactive) | 23.6 µM (inactive) | 12.4 µM (inactive) | 24.3 µM (inactive) | 30.5 µM (inactive) | 20.7 µM (inactive) | 36.4 µM (inactive) | 23.9 µM (inactive) | 48.9 µM (inactive) | 27.9 µM (inactive) | 36.2 µM (inactive) | 32.3 µM (inactive) | 24.1 µM (inactive) | 22.2 µM (inactive) | 18.2 µM (inactive) |  | 23.7 µM (inactive)
